According to BindingDB's records for doi:10.7270/Q23R0R8T (Burnham Center For Chemical Genomics, 2010):

biological target: Nucleotide-binding oligomerization domain-containing protein 2 (Homo sapiens, UniProt Q9HC29); assay: NOD2 signaling inhibitors in MDP-stimulated cells, cell-based, uHTS, luminescence (AID 2001)
Sequence (Q9HC29 whole entry, the tested form may be a part): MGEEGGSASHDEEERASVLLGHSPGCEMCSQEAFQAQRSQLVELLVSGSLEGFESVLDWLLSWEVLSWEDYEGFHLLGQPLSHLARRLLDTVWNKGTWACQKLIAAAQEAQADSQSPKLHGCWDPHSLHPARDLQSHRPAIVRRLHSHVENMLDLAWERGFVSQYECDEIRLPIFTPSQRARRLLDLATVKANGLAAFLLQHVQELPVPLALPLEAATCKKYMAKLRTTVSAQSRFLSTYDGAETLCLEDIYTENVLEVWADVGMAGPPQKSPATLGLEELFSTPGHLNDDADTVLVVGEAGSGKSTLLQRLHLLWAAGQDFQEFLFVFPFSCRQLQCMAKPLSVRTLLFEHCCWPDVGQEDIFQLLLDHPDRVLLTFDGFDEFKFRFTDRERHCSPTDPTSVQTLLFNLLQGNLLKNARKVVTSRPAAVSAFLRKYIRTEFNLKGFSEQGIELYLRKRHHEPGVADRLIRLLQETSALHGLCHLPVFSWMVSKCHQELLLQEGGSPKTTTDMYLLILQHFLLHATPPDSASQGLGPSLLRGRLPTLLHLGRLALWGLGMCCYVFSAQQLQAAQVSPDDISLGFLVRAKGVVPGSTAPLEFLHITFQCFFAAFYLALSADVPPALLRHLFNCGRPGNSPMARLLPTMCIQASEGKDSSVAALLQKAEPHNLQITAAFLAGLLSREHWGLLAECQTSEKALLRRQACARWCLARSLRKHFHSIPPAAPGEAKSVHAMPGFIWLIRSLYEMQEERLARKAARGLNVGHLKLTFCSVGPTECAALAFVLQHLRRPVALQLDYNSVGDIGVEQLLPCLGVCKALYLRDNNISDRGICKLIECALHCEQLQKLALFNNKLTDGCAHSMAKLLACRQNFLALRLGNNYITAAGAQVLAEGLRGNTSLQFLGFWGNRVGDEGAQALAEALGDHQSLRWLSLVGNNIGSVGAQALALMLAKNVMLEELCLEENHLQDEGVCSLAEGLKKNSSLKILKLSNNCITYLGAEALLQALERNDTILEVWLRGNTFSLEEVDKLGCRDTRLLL

| Compound | IC50 [µM] |
| --- | --- |
| CCCCCCC1=Cc2c/c(=C3/NN/C(=C4/C=CC=CC4=O)O3)c(=O)oc2=CC1=O [(3E)-6-hexyl-3-[(5E)-5-(6-oxocyclohexa-2,4-dien-1-ylidene)-1,3,4-oxadiazolidin-2-ylidene]chromene-2,7-dione] | 4.36 |
| Cc1cc(N=NCc2ccccc2[N+](=O)[O-])nc(-n2nc(C)cc2C)n1 [SMR000426946] | 6.55 |
| CN1C(=O)C(=NNC(=S)Nc2ccccc2F)c2cc(S(=O)(=O)N3CCOCC3)ccc21 [SMR000314843] | 9.77 |
| Cc1cc(CN=Nc2nc(N)ncc2[N+](=O)[O-])c(C)n1-c1ccccc1F [MLS000392273] | 6.02 |
| CCCOC1=CC(=O)C(C=NNC(=S)Nc2ccccc2[N+](=O)[O-])C=C1 (stereo unspecified) [1-(2-nitrophenyl)-3-[[(E)-(6-oxo-4-propoxy-1-cyclohexa-2,4-dienylidene)methyl]amino]thiourea] | 0.233 |
| C=CCN1C(=O)C(=NNC(=S)Nc2cccc(C)c2)c2ccccc21 [1-(3-methylphenyl)-3-[(Z)-(2-oxidanylidene-1-prop-2-enyl-indol-3-ylidene)amino]thiourea] | 1.18 |
| Cc1ccc(O)c(/N=C/C2=CC(Cc3ccccc3)C=C([N+](=O)[O-])C2=O)c1 (stereo unspecified) [(6E)-6-[[(5-methyl-2-oxidanyl-phenyl)amino]methylidene]-2-nitro-4-(phenylmethyl)cyclohexa-2,4-dien-1-one] | 12.4 |
| Cc1cc(CN=Nc2ncnc(N)c2[N+](=O)[O-])c(C)n1-c1ccccc1 | 6.1 |
| C=CCN1C(=O)C(=NNC(=S)Nc2cccc(OC)c2)c2ccccc21 [SMR000132469] | 1.76 |
| CCCCCCC1=Cc2c/c(=C3/NN=C(c4ccccc4OC)O3)c(=O)oc2=CC1=O [6-Hexyl-7-hydroxy-3-[5-(2-methoxy-phenyl)-[1,3,4]oxadiazol-2-yl]-chromen-2-one] | 8.48 |
| Cc1cc(SCC(=O)OCC(=O)C(C#N)c2nc3ccccc3[nH]2)c(C)cc1Br (stereo unspecified) | 5.41 |
| O=C1C(=O)N(c2nccs2)C(c2ccccc2)C1C(=O)c1ccc2c(c1)OCCO2 (stereo unspecified) | 18.6 |
| COc1cc(CN=Nc2nc3c(c(=O)n(C)c(=O)n3C)n2Cc2ccccc2)ccc1OC(=O)c1ccco1 [[4-[[(7-benzyl-1,3-dimethyl-2,6-dioxopurin-8-yl)hydrazinylidene]methyl]-2-methoxyphenyl] furan-2-carboxylate] | 5.98 |
| Cc1ccc(C)c(SCC(=O)OCC(=O)C(C#N)c2nc3ccccc3[nH]2)c1 (stereo unspecified) [MLS000392255] | 4.92 |
| CCOc1ccc(-c2csc(/C(C#N)=C/C3C=CC(=O)C([N+](=O)[O-])=C3)n2)cc1 (stereo unspecified) [SMR000237723] | 2.58 |
| COc1ccc(NS(=O)(=O)c2ccc(N=NC(C)c3ccncc3)c([N+](=O)[O-])c2)cc1 (stereo unspecified) [MLS000393523] | 2.11 |
